Laboratory results: patent US20100267561A1, “HERBICIDAL PYRIDAZINONE DERIVATIVES” (priority 2007, published 2010)

Experiments:
Assay type in all cases: in vivo
[1] = test system: barnyardgrass (Echinochloa crus-galli); test: Test B flooded paddy test plant response
Procedure, shortened: (§1)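 Paddy-water application to 2-leaf plants in pots held under 3 cm of flooding; response is a 0–100 visual control rating against controls after 13 to 15 days, and a dash marks a missing result.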

[2] = test system: ducksalad (Heteranthera limosa); test: Test B flooded paddy test plant response
Procedure, shortened: as §1

rice (Oryza sativa) = test: Test B flooded paddy test plant response
Procedure, shortened: as §1

[3] = test system: umbrella sedge (Cyperus difformis); test: Test B flooded paddy test plant response
Procedure, shortened: as §1

[4] = test system: common (oilseed) sunflower (Helianthus annuus); test: Test B pre-/postemergence plant response; conditions: Preemergence
Description: (§2) Seeds of plant species selected from blackgrass (Alopecurus myosuroides), downy bromegrass (Bromus tectorum), green foxtail (Setaria viridis), Italian ryegrass (Lolium multiflorum), wheat (Triticum aestivum), wild oat (Avena fatua), catchweed bedstraw (Galium aparine), bermudagrass (Cynodon dactylon), surinam grass (Brachiaria decumbens), cocklebur (Xanthium strumarium), corn (Zea mays), large crabgrass (Digitaria sanguinalis), woolly cupgrass (Eriochloa villosa), giant foxtail (Setaria faberii), goosegrass (Eleusine indica), johnsongrass (Sorghum halepense), kochia (Kochia scoparia), lambsquarters (Chenopodium album), morningglory (Ipomoea coccinea), eastern black (E.B.) nightshade (Solanum ptycanthum), yellow nutsedge (Cyperus esculentus), pigweed (Amaranthus retroflexus), common ragweed (Ambrosia elation), Russian thistle (Salsola iberica), soybean (Glycine max), common (oilseed) sunflower (Helianthus annuus), and velvetleaf (Abutilon theophrasti) were planted and treated preemergence with test chemicals formulated in a non-phytotoxic solvent mixture which included a surfactant.
(§3) At the same time, plants selected from these crop and weed species and also winter barley (Hordeum vulgare), canarygrass (Phalaris minor), chickweed (Stellaria media) and windgrass (Apera spica-venti) were treated with postemergence applications of some of the test chemicals formulated in the same manner. Plants ranged in height from 2 to 18 cm (1- to 4-leaf stage) for postemergence treatments.
(§4) Plant species in the flooded paddy test consisted of rice (Oryza sativa), umbrella sedge (Cyperus difformis), ducksalad (Heteranthera limosa) and barnyardgrass (Echinochloa crus-galli) grown to the 2-leaf stage for testing. At time of treatment, test pots were flooded to 3 cm above the soil surface, treated by application of test compounds directly to the paddy water, and then maintained at that water depth for the duration of the test. Treated plants and controls were maintained in a greenhouse for 13 to 15 days, after which time all species were compared to controls and visually evaluated. Plant response ratings, summarized in Table B, are based on a scale of 0 to 100 where 0 is no effect and 100 is complete control. A dash (-) response means no test result.

[5] = test system: surinam grass (Brachiaria decumbens); test: Test B pre-/postemergence plant response
Description: as §2, §3, §4

[6] = test system: wheat (Triticum aestivum); test: Test B pre-/postemergence plant response
Description: as §2, §3, §4

[7] = test system: morningglory (Ipomoea coccinea); test: Test B pre-/postemergence plant response
Description: as §2, §3, §4

[8] = test system: giant foxtail (Setaria faberii); test: Test B pre-/postemergence plant response
Description: as §2, §3, §4

[9] = test system: goosegrass (Eleusine indica); test: Test B pre-/postemergence plant response
Description: as §2, §3, §4

[10] = test system: eastern black (E.B.) nightshade (Solanum ptycanthum); test: Test B pre-/postemergence plant response; conditions: Preemergence
Description: as §2, §3, §4

soybean (Glycine max) = test: Test B pre-/postemergence plant response
Description: as §2, §3, §4

[11] = test system: downy bromegrass (Bromus tectorum); test: Test B pre-/postemergence plant response
Description: as §2, §3, §4

[12] = Flood (flooded paddy test), 125 g ai/ha, scale 0 to 100, 0 no effect, 100 complete control
[13] = Flood (flooded paddy test), 250 g ai/ha, scale 0 to 100, 0 no effect, 100 complete control
[14] = Flood, 31 g ai/ha, scale 0 to 100
[15] = Flood, 62 g ai/ha, scale 0 to 100
[16] = 8 g ai/ha, scale 0 to 100 (0 no effect, 100 complete control)
[17] = 31 g ai/ha, scale 0 to 100 (0 no effect, 100 complete control)
[18] = 62 g ai/ha, 0 to 100 scale, 0 no effect, 100 complete control
[19] = 8 g ai/ha, postemergence, 0-100 scale
[20] = 16 g ai/ha, postemergence, 0-100 scale
[21] = Postemergence, 31 g ai/ha, scale 0 to 100
[22] = Postemergence, 62 g ai/ha, scale 0 to 100, 0 no effect, 100 complete control
[23] = Preemergence, 8 g ai/ha, scale 0 to 100 (0 no effect, 100 complete control)
[24] = Preemergence, 31 g ai/ha, scale 0 to 100 (0 no effect, 100 complete control)
[25] = Preemergence, 62 g ai/ha, 0 to 100 scale, 0 no effect, 100 complete control
[26] = Preemergence, 16 g ai/ha, scale 0 to 100

Compound: CCc1c(C)c(-c2ccc(Br)cc2)nn1-c1c(O)cnn(C)c1=O [Compound 83]
- Plant response rating, Barnyardgrass [1, 12]: 0
- Plant response rating, Barnyardgrass [1, 13]: 0
- Plant response rating, Barnyardgrass [1, 14]: 0
- Plant response rating, Barnyardgrass [1, 15]: 0
- Plant response rating, Ducksalad [2, 12]: 0
- Plant response rating, Ducksalad [2, 14]: 0
- Plant response rating, Ducksalad [2, 15]: 0
- Plant response rating, Rice (rice (Oryza sativa); [12]): 0
- Plant response rating, Rice (rice (Oryza sativa); [13]): 0
- Plant response rating, Rice (rice (Oryza sativa); [14]): 0
- Plant response rating, Rice (rice (Oryza sativa); [15]): 0
- Plant response rating, Sedge, Umbrella [3, 12]: 0
- Plant response rating, Sedge, Umbrella [3, 13]: 0
- Plant response rating, Sedge, Umbrella [3, 14]: 0
- Plant response rating, Sedge, Umbrella [3, 15]: 0
- Sunflower plant response rating [4, 16]: 0
- Plant response rating, Sunflower [4, 17]: 0
- Plant response rating, Sunflower [4, 18]: 0
- Sunflower plant response rating ([4]; 16 g ai/ha, scale 0 to 100): 0
- Surinam Grass plant response rating [5, 19]: 85
- Surinam Grass plant response rating [5, 20]: 100
- Plant response rating, Surinam Grass [5, 21]: 100
- Plant response rating, Surinam Grass [5, 22]: 100
- Surinam Grass plant response rating [5, 23]: 55
- Plant response rating, Surinam Grass [5, 24]: 98
- Plant response rating, Surinam Grass [5, 25]: 100
- Surinam Grass plant response rating [5, 26]: 90
- Wheat plant response rating [6, 19]: 40
- Wheat plant response rating [6, 20]: 55
- Plant response rating, Wheat [6, 21]: 90
- Plant response rating, Wheat [6, 22]: 95
- Wheat plant response rating [6, 23]: 0
- Plant response rating, Wheat [6, 24]: 0
- Plant response rating, Wheat [6, 25]: 20
- Wheat plant response rating [6, 26]: 0
- Morningglory plant response rating [7, 19]: 0
- Morningglory plant response rating [7, 20]: 0
- Plant response rating, Morningglory [7, 21]: 0
- Plant response rating, Morningglory [7, 22]: 0
- Morningglory plant response rating [7, 23]: 0
- Plant response rating, Morningglory [7, 24]: 0
- Plant response rating, Morningglory [7, 25]: 0
- Morningglory plant response rating [7, 26]: 0
- Foxtail, Giant plant response rating [8, 19]: 80
- Foxtail, Giant plant response rating [8, 20]: 90
- Plant response rating, Foxtail, Giant [8, 21]: 100
- Plant response rating, Foxtail, Giant [8, 22]: 100
- Foxtail, Giant plant response rating [8, 23]: 80
- Plant response rating, Foxtail, Giant [8, 24]: 100
- Plant response rating, Foxtail, Giant [8, 25]: 100
- Foxtail, Giant plant response rating [8, 26]: 100
- Goosegrass plant response rating [9, 19]: 0
- Goosegrass plant response rating [9, 20]: 45
- Plant response rating, Goosegrass [9, 21]: 55
- Plant response rating, Goosegrass [9, 22]: 60
- Goosegrass plant response rating [9, 23]: 55
- Plant response rating, Goosegrass [9, 24]: 95
- Plant response rating, Goosegrass [9, 25]: 100
- Goosegrass plant response rating [9, 26]: 80
- Nightshade, E. B. plant response rating [10, 16]: 0
- Plant response rating, Nightshade, E. B. [10, 17]: 0
- Plant response rating, Nightshade, E. B. [10, 18]: 0
- Nightshade, E. B. plant response rating ([10]; 16 g ai/ha, scale 0 to 100): 0
- Soybean plant response rating (soybean (Glycine max); [19]): 0
- Soybean plant response rating (soybean (Glycine max); [20]): 0
- Plant response rating, Soybean (soybean (Glycine max); [21]): 0
- Plant response rating, Soybean (soybean (Glycine max); [22]): 0
- Soybean plant response rating (soybean (Glycine max); [23]): 0
- Plant response rating, Soybean (soybean (Glycine max); [24]): 0
- Plant response rating, Soybean (soybean (Glycine max); [25]): 0
- Soybean plant response rating (soybean (Glycine max); [26]): 0
- Bromegrass, Downy plant response rating [11, 19]: 10
- Bromegrass, Downy plant response rating [11, 20]: 55
- Plant response rating, Bromegrass, Downy [11, 21]: 75
- Plant response rating, Bromegrass, Downy [11, 22]: 85
- Bromegrass, Downy plant response rating [11, 23]: 0
- Plant response rating, Bromegrass, Downy [11, 24]: 20
- Plant response rating, Bromegrass, Downy [11, 25]: 30
- Bromegrass, Downy plant response rating [11, 26]: 0
